Common to all, as to format: functional, cell membranes, Membrane vesicle
Data set [1] concerns the target T1, MRP4 (ATP-binding cassette sub-family C member 4) (Homo sapiens, UniProt O15439).
T1 sequence (O15439 whole entry): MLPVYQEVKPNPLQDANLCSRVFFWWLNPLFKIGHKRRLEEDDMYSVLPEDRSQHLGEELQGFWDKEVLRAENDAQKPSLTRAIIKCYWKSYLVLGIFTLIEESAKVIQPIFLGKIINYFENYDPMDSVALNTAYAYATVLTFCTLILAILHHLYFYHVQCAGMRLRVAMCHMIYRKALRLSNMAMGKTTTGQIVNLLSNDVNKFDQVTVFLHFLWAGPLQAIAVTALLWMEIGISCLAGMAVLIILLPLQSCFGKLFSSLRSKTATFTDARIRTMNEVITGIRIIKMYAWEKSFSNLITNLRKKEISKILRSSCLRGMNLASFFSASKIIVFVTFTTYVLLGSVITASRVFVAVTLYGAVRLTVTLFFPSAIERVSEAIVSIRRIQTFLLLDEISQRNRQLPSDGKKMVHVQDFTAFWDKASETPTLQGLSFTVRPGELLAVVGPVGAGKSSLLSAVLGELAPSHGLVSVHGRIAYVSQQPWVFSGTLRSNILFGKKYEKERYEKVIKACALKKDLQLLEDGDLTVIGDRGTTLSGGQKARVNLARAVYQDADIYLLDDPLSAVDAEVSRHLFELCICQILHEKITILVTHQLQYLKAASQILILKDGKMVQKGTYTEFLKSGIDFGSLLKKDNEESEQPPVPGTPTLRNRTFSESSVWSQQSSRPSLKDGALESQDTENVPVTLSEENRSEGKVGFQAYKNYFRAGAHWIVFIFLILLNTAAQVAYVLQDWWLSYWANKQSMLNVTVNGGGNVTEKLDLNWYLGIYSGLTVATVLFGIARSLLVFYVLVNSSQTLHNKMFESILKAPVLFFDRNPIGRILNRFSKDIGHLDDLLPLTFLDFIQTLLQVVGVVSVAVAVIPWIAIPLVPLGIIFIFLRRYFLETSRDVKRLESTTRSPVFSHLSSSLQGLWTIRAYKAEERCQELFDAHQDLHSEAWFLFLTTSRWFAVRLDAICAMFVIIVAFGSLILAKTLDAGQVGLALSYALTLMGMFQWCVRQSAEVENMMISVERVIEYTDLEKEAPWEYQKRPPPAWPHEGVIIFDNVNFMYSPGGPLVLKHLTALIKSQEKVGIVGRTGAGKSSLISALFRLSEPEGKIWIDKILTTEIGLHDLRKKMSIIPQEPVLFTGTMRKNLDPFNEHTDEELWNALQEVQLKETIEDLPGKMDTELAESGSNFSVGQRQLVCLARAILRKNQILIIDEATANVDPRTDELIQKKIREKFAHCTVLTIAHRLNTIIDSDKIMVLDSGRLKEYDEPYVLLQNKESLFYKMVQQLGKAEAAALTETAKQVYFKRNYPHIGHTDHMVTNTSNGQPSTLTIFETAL
The data set can be described thus: TP_TRANSPORTER: inhibition of MTX uptake (MTX: 20 uM, Sildenafil: 10 uM) in membrane vesicles from MRP4-expressing Sf9 cells. Set-up: scale not given: the % may be the effect or the level left. The following applies: probe MTX (20 uM), read-out: Activity.

The target in data set [2] is T1, MRP4 (ATP-binding cassette sub-family C member 4). The data set is described as follows: TP_TRANSPORTER: inhibition of MTX uptake (MTX: 20 uM, cGMP: 300 uM) in membrane vesicles from MRP4-expressing Sf9 cells. Set-up: scale not given: the % may be the effect or the level left. The following applies: probe MTX (20 uM), read-out: Activity.
The target is the same in data set [3]. The data set is described as follows: TP_TRANSPORTER: inhibition of MTX uptake (MTX: 20 uM, Verapamil: 30 uM) in membrane vesicles from MRP4-expressing Sf9 cells. Conditions: probe MTX (20 uM), read-out: Activity. Set-up: scale not given: the % may be the effect or the level left.
The target is the same in data set [4]. The data set is described as follows: TP_TRANSPORTER: inhibition of MTX uptake (MTX: 20 uM, E217betaG: 30 uM) in membrane vesicles from MRP4-expressing Sf9 cells. The following applies: probe MTX (20 uM), read-out: Activity. More on the design: scale not given: the % may be the effect or the level left.
Data set [5] shares this target. The data set can be described thus: TP_TRANSPORTER: inhibition of MTX uptake (MTX: 20 uM, Folic acid: 300 uM) in membrane vesicles from MRP4-expressing Sf9 cells. Set-up: scale not given: the % may be the effect or the level left. The following applies: probe MTX (20 uM), read-out: Activity.
Data set [6] has the same target. The data set is described as follows: TP_TRANSPORTER: inhibition of MTX uptake (MTX: 20 uM, Leucovorin: 300 uM) in membrane vesicles from MRP4-expressing Sf9 cells. More on the design: scale not given: the % may be the effect or the level left. The following applies: probe MTX (20 uM), read-out: Activity.
Data set [7] shares this target. The data set can be described thus: TP_TRANSPORTER: inhibition of MTX uptake (MTX: 20 uM, MK571: 1 uM) in membrane vesicles from MRP4-expressing Sf9 cells. The following applies: probe MTX (20 uM), read-out: Activity. More on the design: scale not given: the % may be the effect or the level left.
Data set [8] has the same target. The data set is described as follows: TP_TRANSPORTER: inhibition of MTX uptake (MTX: 20 uM, Probenecid: 300 uM) in membrane vesicles from MRP4-expressing Sf9 cells. Set-up: scale not given: the % may be the effect or the level left. Conditions: probe MTX (20 uM), read-out: Activity.
The target is the same in data set [9]. The data set can be described thus: TP_TRANSPORTER: inhibition of MTX uptake (MTX: 20 uM, Sulfinpyrazone: 300 uM) in membrane vesicles from MRP4-expressing Sf9 cells. More on the design: scale not given: the % may be the effect or the level left. Conditions: probe MTX (20 uM), read-out: Activity.
The target is the same in data set [10]. The data set is described as follows: TP_TRANSPORTER: inhibition of MTX uptake (MTX: 20 uM, Trequinsin: 10 uM) in membrane vesicles from MRP4-expressing Sf9 cells. Set-up: scale not given: the % may be the effect or the level left. The following applies: probe MTX (20 uM), read-out: Activity.
For data set [11] the target is unchanged. The data set can be described thus: TP_TRANSPORTER: inhibition of MTX uptake (MTX: 20 uM, PSC-833: 10 uM) in membrane vesicles from MRP4-expressing Sf9 cells. More on the design: scale not given: the % may be the effect or the level left. Conditions: probe MTX (20 uM), read-out: Activity.
Data set [12] shares this target. The data set can be described thus: TP_TRANSPORTER: inhibition of MTX uptake (MTX: 20 uM, Zaprinast: 10 uM) in membrane vesicles from MRP4-expressing Sf9 cells. Set-up: scale not given: the % may be the effect or the level left. The following applies: probe MTX (20 uM), read-out: Activity.
Substrate in data set [13]: Nc1nc2c(c(=O)[nH]1)N(C=O)C(CNc1ccc(C(=O)N[C@@H](CCC(=O)O)C(=O)O)cc1)CN2
The data set is described as follows: (§1) TP_TRANSPORTER: uptake in membrane vesicles from MRP4-expressing Sf9 cells.

Substrate in data set [14]: Nc1nc2ncc(CNc3ccc(C(=O)N[C@@H](CCC(=O)O)C(=O)O)cc3)nc2c(=O)[nH]1
The description is as §1.

Usually Km stands for the concentration of substrate that gives half-maximal velocity.

For the molecule `CCCc1nn(C)c2c(=O)[nH]c(-c3cc(S(=O)(=O)N4CCN(C)CC4)ccc3OCC)nc12`, the activity at 10 µM in data set [1] was determined as 46%.
On to `Nc1nc2c(ncn2[C@@H]2O[C@@H]3COP(=O)(O)O[C@H]3[C@H]2O)c(=O)[nH]1`, for which the activity at 300 µM in data set [2] was found to be 46.5%.
`COc1ccc(CCN(C)CCCC(C#N)(c2ccc(OC)c(OC)c2)C(C)C)cc1OC` (centres undefined): the activity at 30 µM in [3] worked out at 53.8%.
On to `C[C@]12CC[C@@H]3c4ccc(O)cc4CC[C@H]3[C@@H]1CC[C@@H]2O[C@@H]1O[C@H](C(=O)O)[C@@H](O)[C@H](O)[C@H]1O` [ESTRADIOL 17B GLUCURONIDE], for which the activity at 30 µM in [4] turned out to be 39.9%.
As to `Nc1nc2ncc(CNc3ccc(C(=O)N[C@@H](CCC(=O)O)C(=O)O)cc3)nc2c(=O)[nH]1` [FOLIC ACID], the activity at 300 µM in [5] amounted to 45%.
For `Nc1nc2c(c(=O)[nH]1)N(C=O)C(CNc1ccc(C(=O)N[C@@H](CCC(=O)O)C(=O)O)cc1)CN2` (some centres undefined) [LEUCOVORIN], in data set [6], the activity at 300 µM came out at 71.2%.
On to `CN(C)C(=O)CCSC(SCCC(=O)O)c1cccc(/C=C/c2ccc3ccc(Cl)cc3n2)c1` (centres undefined) [MK-571], for which the activity at 1 µM in data set [7] worked out at 56.4%.
For `CCCN(CCC)S(=O)(=O)c1ccc(C(=O)O)cc1` [PROBENECID], the activity at 300 µM in [8] is 49.4%.
Take `O=C1C(CC[S+]([O-])c2ccccc2)C(=O)N(c2ccccc2)N1c1ccccc1` (centres undefined) [SULFINPYRAZONE]: in data set [9], the activity at 300 µM is 23.3%.
With `COc1cc2c(cc1OC)-c1c/c(=N\c3c(C)cc(C)cc3C)n(C)c(=O)n1CC2` [TREQUINSIN], in data set [10], the activity at 10 µM worked out at 25.7%.
`C/C=C/C[C@@H](C)C(=O)[C@H]1C(=O)N[C@@H](C(C)C)C(=O)N(C)CC(=O)N(C)[C@@H](CC(C)C)C(=O)N[C@@H](C(C)C)C(=O)N(C)[C@@H](CC(C)C)C(=O)N[C@@H](C)C(=O)N[C@H](C)C(=O)N(C)[C@@H](CC(C)C)C(=O)N(C)[C@@H](CC(C)C)C(=O)N(C)[C@@H](C(C)C)C(=O)N1C` [VALSPODAR]: the activity at 10 µM in [11] was determined as 56.4%.
For the molecule `CCCOc1ccccc1-c1nc2nn[nH]c2c(=O)[nH]1` [ZAPRINAST], the activity at 10 µM in data set [12] amounted to 34.1%.

B1: ATP-binding cassette sub-family C member 4 (Homo sapiens) (protein)
chain: T1 sequence (O15439 whole entry)
As for B1, the Michaelis constant (Km) in [13] was found to be 640 µM; in data set [14], 170 µM.

The record behind these values is ChEMBL document CHEMBL2074469, “Analysis of methotrexate and folate transport by multidrug resistance protein 4 (ABCC4): MRP4 is a component of the methotrexate efflux system” (Cancer Res, 2002).
